Test results published in ChEMBL document CHEMBL1140126, “Optimizing natural products by biosynthetic engineering: discovery of nonquinone Hsp90 inhibitors” (J Med Chem, 2008).
≈ marks a conversion by molar mass, not a printed value.

Experiments:
[1] = Solubility at room temperature after 6 hrs by HPLC; assay type: physicochemical
Mus musculus [2] = experiment: Toxicity in NMRI nu/nu mouse assessed as body weight loss at 250 mg/kg/day for 5 days; assay type: organism-based; conditions: in vivo, 120 h
[3] = Toxicity in NMRI nu/nu mouse assessed as maximum tolerated dose; assay type: organism-based; conditions: in vivo
Mus musculus [4] = experiment: Toxicity in nude mouse xenografted with human MAXF401 cells assessed as median body weight loss at 85 mg/kg/day, ip; assay type: organism-based; parameters: route intraperitoneal; conditions: in vivo
[5] = Antitumor activity against human MAXF401 cells xenografted in nude mouse assessed as inhibition of tumor growth at 85 mg/kg/day, ip administered alternately for 5 days with 3 days intervals assessed on day 35; assay type: functional; conditions: route intraperitoneal
[6] = Antitumor activity against human MAXF401 cells xenografted in nude mouse assessed as inhibition of tumor growth at 42.5 mg/kg/day, ip administered alternately for 5 days with 3 days intervals assessed on day 21; assay type: functional; conditions: route intraperitoneal
[7] = Antitumor activity against human MAXF401 cells xenografted in nude mouse assessed as inhibition of tumor growth at 50 mg/kg/day, ip administered alternately for 5 days with 3 days intervals assessed on day 28; assay type: functional; conditions: route intraperitoneal
Mus musculus [8] = experiment: Toxicity in nude mouse xenografted with human MAXF401 cells assessed as median body weight loss on day 21 at 50 mg/kg/day, ip; assay type: organism-based; parameters: route intraperitoneal; conditions: in vivo
[9] = Binding affinity to yeast HSP90; parameters: species or system Saccharomyces cerevisiae

**Q.** Which solubility at 6 h [1] does the source give for `CO[C@H]1C[C@H](C)Cc2cc(O)cc(c2)NC(=O)/C(C)=C/CC[C@H](C)[C@@H](OC(N)=O)/C(C)=C/[C@H](C)[C@H]1O` here?
**A.** > 200 µM

**Q.** And the Activity (Mus musculus [2])?
**A.** 3.8%

**Q.** What about the MTD [3] of the same molecule?
**A.** ≥ 250 mg/kg

**Q.** And the Activity (Mus musculus [4])?
**A.** 3.2%

**Q.** What about the T/C [5] of the same molecule?
**A.** 45.3%

**Q.** And the T/C [6]?
**A.** 53.9%

**Q.** And the T/C [7]?
**A.** 35.6%

**Q.** And the Activity (Mus musculus [8])?
**A.** 4.4%

**Q.** Which solubility at 6 h [1] does the source give for `CO[C@H]1[C@@H](OC)C[C@H](C)[C@@H](OC)C2=CC(=O)C=C(NC(=O)/C(C)=C/C=C\[C@H](C)[C@@H](OC(N)=O)/C(C)=C/[C@@H]1C)C2=O` [MACBECIN] here?
**A.** 81 µM (≈ 45.3 µg/mL)

**Q.** With `C=CCNC1=C2C[C@@H](C)C[C@H](OC)[C@H](O)[C@@H](C)/C=C(\C)[C@H](OC(N)=O)[C@@H](OC)/C=C\C=C(/C)C(=O)NC(=CC1=O)C2=O` [TANESPIMYCIN] as the molecule, how does the MTD [3] read?
**A.** 50 mg/kg

**Q.** For `CO[C@H]1C[C@H](C)[C@@H](O)c2cc(O)cc(c2)NC(=O)/C(C)=C/CC[C@H](C)[C@@H](OC(N)=O)/C(C)=C/[C@H](C)[C@H]1O`, which Kd [9] is on record?
**A.** 6 nM
